Measured values as given in ChEMBL document CHEMBL1137095, “Synthesis and radioiodination of selective ligands for the dopamine D3 receptor subtype” (Bioorg Med Chem Lett, 2004).
pKi: −log10 of the molar value.

Legend:
[1] = target: D(1A) dopamine receptor (Sus scrofa, UniProt P50130); test: Binding affinity towards D1 receptor from porcine striatal membranes using [3H]-SCH- 23390
[2] = target: T1, D(4) dopamine receptor (Homo sapiens, UniProt P21917); test: biochemical
T1 sequence (P21917 whole entry): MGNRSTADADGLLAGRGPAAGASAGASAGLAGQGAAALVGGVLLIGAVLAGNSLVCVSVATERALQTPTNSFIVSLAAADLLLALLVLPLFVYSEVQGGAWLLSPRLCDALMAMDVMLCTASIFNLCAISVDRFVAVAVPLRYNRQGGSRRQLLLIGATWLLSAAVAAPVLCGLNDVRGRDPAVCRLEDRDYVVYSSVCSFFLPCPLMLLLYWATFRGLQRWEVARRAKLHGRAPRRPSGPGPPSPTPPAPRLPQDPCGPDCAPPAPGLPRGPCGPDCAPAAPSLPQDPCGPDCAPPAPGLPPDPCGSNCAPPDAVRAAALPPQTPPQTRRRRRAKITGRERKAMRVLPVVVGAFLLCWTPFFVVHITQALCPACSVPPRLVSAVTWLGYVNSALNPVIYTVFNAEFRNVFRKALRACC
Description: Binding affinity towards human D4.4 receptor using [3H]spiperone expressed in CHO cells

[3] = Binding affinity towards 5-HT2 receptor from porcine cortical membranes using [3H]ketanserin
[4] = target: D(3) dopamine receptor (Homo sapiens, UniProt P35462); test: biochemical
Description: Binding affinity towards human D3 receptor using [3H]spiperone expressed in CHO cells

[5] = target: T2, D(2) dopamine receptor (Homo sapiens, UniProt P14416); test: biochemical
Description: Binding affinity towards human D2 short receptor using [3H]spiperone expressed in CHO cells

[6] = target: T2, D(2) dopamine receptor; test: biochemical; remark: listed apart in the source
Description: Binding affinity towards human D2 long receptor using [3H]spiperone expressed in CHO cells

Chain of D(3) dopamine receptor (P35462 whole entry): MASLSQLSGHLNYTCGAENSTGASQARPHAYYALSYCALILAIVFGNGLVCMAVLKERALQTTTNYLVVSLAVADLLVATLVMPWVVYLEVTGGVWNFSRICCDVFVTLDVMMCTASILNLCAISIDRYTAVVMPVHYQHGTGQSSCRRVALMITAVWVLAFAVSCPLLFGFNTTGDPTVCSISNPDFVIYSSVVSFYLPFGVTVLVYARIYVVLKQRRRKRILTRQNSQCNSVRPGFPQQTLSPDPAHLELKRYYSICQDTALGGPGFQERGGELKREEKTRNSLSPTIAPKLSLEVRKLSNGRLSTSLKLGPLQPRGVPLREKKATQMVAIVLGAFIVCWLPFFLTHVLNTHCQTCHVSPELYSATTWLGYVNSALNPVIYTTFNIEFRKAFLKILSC
T2 sequence (P14416 whole entry): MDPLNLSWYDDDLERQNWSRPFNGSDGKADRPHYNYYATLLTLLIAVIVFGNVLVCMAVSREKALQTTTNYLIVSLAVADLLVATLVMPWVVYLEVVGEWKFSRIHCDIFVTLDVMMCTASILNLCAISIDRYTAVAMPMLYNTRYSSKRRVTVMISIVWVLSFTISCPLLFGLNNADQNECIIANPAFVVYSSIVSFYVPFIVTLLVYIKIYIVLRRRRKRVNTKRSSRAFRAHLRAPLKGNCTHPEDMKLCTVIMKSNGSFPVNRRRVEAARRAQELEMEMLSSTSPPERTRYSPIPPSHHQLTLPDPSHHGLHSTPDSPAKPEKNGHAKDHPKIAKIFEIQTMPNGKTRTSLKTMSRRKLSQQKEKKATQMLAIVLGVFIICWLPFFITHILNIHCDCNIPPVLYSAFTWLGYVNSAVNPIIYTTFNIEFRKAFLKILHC
Chain of D(1A) dopamine receptor (P50130 whole entry): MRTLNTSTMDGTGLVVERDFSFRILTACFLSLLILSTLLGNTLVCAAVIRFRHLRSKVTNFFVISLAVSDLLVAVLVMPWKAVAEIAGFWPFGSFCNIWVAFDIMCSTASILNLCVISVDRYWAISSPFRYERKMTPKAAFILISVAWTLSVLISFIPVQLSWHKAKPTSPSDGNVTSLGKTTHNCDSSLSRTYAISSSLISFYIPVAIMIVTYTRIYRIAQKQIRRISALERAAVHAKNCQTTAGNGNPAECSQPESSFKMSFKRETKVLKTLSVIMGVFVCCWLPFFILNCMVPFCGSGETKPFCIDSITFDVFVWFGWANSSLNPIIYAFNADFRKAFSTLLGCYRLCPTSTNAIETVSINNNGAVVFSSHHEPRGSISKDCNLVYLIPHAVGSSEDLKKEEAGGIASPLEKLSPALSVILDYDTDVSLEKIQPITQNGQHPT

pKi [1] | pKi [2] | pKi [3] | pKi [4] | pKi [5] | pKi [6] | Compound
6.38 | 7.34 | 6.64 | 8.85 | 7.57 |  | COc1ccccc1N1CCN(CCCCNC(=O)c2cc3cc(I)ccc3o2)CC1
6.22 | 7.51 | 6.16 | 8.62 | 7.46 | 7.12 | COc1ccccc1N1CCN(CCCCNC(=O)c2ccc(I)s2)CC1
5.85 | 6.26 | 6.54 | 8.35 | 6.85 | 6.35 | O=C(NCCCCN1CCN(c2cccc(Cl)c2Cl)CC1)c1cc2cc(I)ccc2s1
5.48 | 5.66 | 6.10 |  | 6.37 | 5.49 | O=C(NCCCCN1CCN(c2cccc(Cl)c2Cl)CC1)c1cc2cc(I)ccc2o1
6.28 | 7.38 | 6.60 | 9.07 | 9.00 | 7.32 | COc1ccccc1N1CCN(CCCCNC(=O)c2cc3cc(I)ccc3s2)CC1
 |  | 5.52 |  |  |  | O=C(NCCCCN1CCN(c2cccc(Cl)c2Cl)CC1)c1cc2ccccc2s1

Compound | pKi [1] | pKi [2] | pKi [3] | pKi [4] | pKi [5] | pKi [6]
O=C(NCCCCN1CCN(c2cccc(Cl)c2Cl)CC1)c1ccc(I)s1 | 6.09 | 6.89 | 6.68 | 8.85 | 7.49 | 7.05
